Measurements from patent US6569638B1, “Method for screening compounds for the treatment of neoplasia” (Cell Pathways, Inc, priority 2000, dated 2003).

Key:
LNCaP cells = test: Histone-associated fragmented DNA (apoptosis) in prostate tumor cells; format: cell-based, human; conditions: 50 μM Compound B (free base), up to 4 days
Experimental: (§1) The androgen-sensitive prostate tumor cell line, LNCaP (from ATCC (Rockville, Md.)) was propagated under standard conditions using […] medium containing 5% fetal calve serum and 2 mM glutamine. Primary prostate epithelial cell cultures (PrEC) derived from normal prostate (from Clonetics Inc. (San Diego, Calif.)) were grown under the same conditions as the tumor cell line except a serum-free medium optimized for the growth of such cultures was used (Clonetics Inc). For the experiments, LNCaP or PrEC cells were seeded in 96 well plates at a density of 10,000 cells per well. After 24 hours, the cells were treated with either vehicle (0.1% DMSO) or 50 μM Compound B (free base) solubilized in DMSO. After various drug treatment times ([…]) the cells were lysed and processed for measurement of histone-associated DNA as an indicator of apoptotic cell death (see, Piazza et al., Cancer Research 57: 2452-2459, 1997).

PrEC cells = test: Histone-associated fragmented DNA (apoptosis) in normal prostate epithelial cells; format: cell-based, human; conditions: 50 μM, up to 4 days
Experimental: as §1

SW-480 cell line = test: Tumor cell growth inhibition; format: cell-based, human
Description: In an alternate embodiment, the method of the present invention involves further determining whether the compound reduces the growth of tumor cells. Various cell lines can be used in the sample depending on the tissue to be tested. For example, these cell lines include: SW-480—colonic adenocarcinoma; HT-29—colonic adenocarcinoma, A-427—lung adenocarcinoma carcinoma; MCF-7—breast adenocarcinoma; and UACC-375—melanoma line; and DU145—prostrate carcinoma. Cytotoxicity data obtained using these cell lines are indicative of an inhibitory effect on neoplastic lesions. These cell lines are well characterized, and are used by the United States National Cancer Institute in their screening program for new anti-cancer drugs.
A compound's ability to inhibit tumor cell growth can be measured using the HT-29 human colon carcinoma cell line obtained from ATCC. […] After six days in culture, the cells are fixed by the addition of cold trichloroacetic acid to a final concentration of 10% and protein levels are measured using the sulforhodamine B (SRB) calorimetric protein stain assay as previously described by Skehan, P., Storeng, R., Scudiero, D., Monks, A., McMahon, J., Vistica, D., Warren, J. T., Bokesch, H., Kenney, S., and Boyd, M. R., “New Colorimetric Assay For Anticancer-Drug Screening,” J. Natl. Cancer Inst. […]
Preferably, an IC50 value is determined and used for comparative purposes. […]

[1] = system: aberrant crypt foci (ACF); test: Azoxymethane-induced aberrant crypt foci model; format: in vivo, male Fisher 344 rats; conditions: for % Control (ACF/colon) / Mean ACF/colon (+SE): free base; for Mean ACF/colon (+SE): 5 weeks
Experimental: The growth inhibition IC50 value obtained for Compound B was 0.7 μM in the SW-480 cell line. […] This established rodent model of azoxymethane (“AOM”)-induced carcinogenesis was used to assess the effects of Compound B (free base and salt) on colon cancer development in vivo. ACF are precursors to colonic tumors, and ACF inhibition is predictive of chemo-preventive efficacy.
In the rats in this experiment, ACF initiation was achieved by two consecutive weekly injections of the carcinogen. Compound B was administered one week prior to ACF initiation and for the duration of the experiment. ACFs were scored after 5 weeks of treatment. Compound B was administered orally to male Fisher 344 rats in the rat chow. Daily food consumption (mg/kg body weight) varied over the course of the study, and therefore Compound B dose was expressed a grams per kg of diet to provide a basis of comparison between doses. […] The experimental groups gained less weight than the controls, which was indicative of bioavailability. However, the weight differences were less than 10% and not considered to affect ACF formation.

[2] = Seven-day dose-range finding study in rats; conditions: seven days
[3] = Safety evaluation in exisulind clinical trials; format: in vivo
Experimental: In these exisulind trials and several others involving the drug in other indications, safety was evaluated by monitoring adverse events (AEs), clinical laboratory tests (hematology, serum chemistry, and urinalysis), vital signs (blood pressure, pulse rate, respiratory rate, temperature, and weight), physical examination, and upper endoscopy.

[4] = system: polyp and normal colonic tissues; test: Apoptosis rates in paired biopsies of APC patients; format: in vivo, human

SMILES | histone-associated fragmented DNA (LNCaP cells) | DNA fragmentation (PrEC cells) | IC50 (SW-480 cell line) | % Control (ACF/colon) ([1]; 0.5 g/kg diet) | Mean ACF/colon (+SE) ([1]; 0.5 g/kg diet) | % Control (ACF/colon) ([1]; 1 g/kg diet) | Mean ACF/colon (+SE) ([1]; 1 g/kg diet) | % Control (ACF/colon) ([1]; 1.5 g/kg diet) | Mean ACF/colon (+SE) ([1]; 1.5 g/kg diet) | % Control (ACF/colon) ([1]; 2.0 g/kg diet) | Mean ACF/colon (+SE) ([1]; 2.0 g/kg diet) | body weight difference versus controls ([1]; rats, Compound B in rat chow, over the experiment) | signs of toxicity ([2]; 50 mg/kg/day) | treatment-related effects ([2]; 500 mg/kg/day) | treatment-related effects ([2]; 2000 mg/kg/day) | safety findings in clinical trials ([3]; human, in vivo) | maximum tolerated dose (MTD) ([3]; patients with intact colons) | maximum tolerated dose (MTD) ([3]; patients with subtotal colectomy) | maximum tolerated dose (MTD) ([3]; pediatric patients) | apoptosis rates in polyp versus normal colonic tissues [4]
CC1=C(CC(=O)NCc2ccccc2)c2cc(F)ccc2/C1=C\c1ccncc1.Cl [Compound B, (Z)-5-fluoro-2-methyl-(4-pyridylidene)-3-(N-benzyl)indenylacetamide hydrochloride] | significant increase in fragmented DNA was detected after 24 hours of treatment | did not affect DNA fragmentation | 700 nM | 100% | 149 ± 14 | 75% | 111 ± 9 | 89% | 132 ± 4 | 72% | 107 ± 15 | less than 10% | no observable signs of toxicity | an increase in absolute and relative liver weights in female rats | labored breathing and/or abnormal respiratory sounds, decreased weights gains and food consumption in male rats, and increased liver weights in female rats | – | – | – | – | –
CC1=C(CC(=O)O)c2cc(F)ccc2/C1=C\c1ccc(S(C)(=O)=O)cc1 [exisulind, 5-fluoro-2-methyl-1-(p-methylsulfonylbenzylidene)-3-indenylacetic acid] | – | – | – | – | – | – | – | – | – | – | – | – | – | – | – | No outstanding safety issues have been demonstrated | 400 mg | 600 mg | 350 mg | increased apoptosis rates in polyp, but not normal colonic tissues
